Data from patent US11986790B2, “Method for preparing microcapsules” (LG Household & Health Care Ltd., priority 2018, dated 2024).
≈ marks a conversion by molar mass, not a printed value.

Test: Water solubility of acrylic monomers
Assay type: physicochemical
Settings: 25 °C
Source text: Specific examples of such acrylic monomers may include one or more selected from the group consisting of dipropyleneglycol diacrylate, diethyleneglycol diacrylate, and tetraethyleneglycol dimethacrylate, as shown in the following Table 1.

- solubility (Table 1, room temperature of 25° C.): 52 to 53 mg/mL (≈ 157 to 160 mM)
- solubility (stated in the example text for the monomer used): 52 mg/mL (≈ 157 mM)
SMILES: C=C(C)C(=O)OCCOCCOCCOCCOC(=O)C(=C)C [Tetraethylene glycol Dimethacrylate]
